Active and inactive are the calls of the source. No cut-off for these calls is given here.
Assays:
[1] = biological target: SRSF protein kinase 1 (Homo sapiens) (UniProt Q96SB4); assay: Inhibition of human SRPK1 assessed as remaining activity at 0.8 uM after 40 mins by scintillation counting
MDA-MB-436 = assay: Antiproliferative activity against human MDA-MB-436 cells at 1 uM after 4 hrs by prestoblue cell viability assay; format: functional, cell-based
MCF7 [2] = assay: Potentiation of anisomycin-mediated cytotoxicity in human MCF7 cells at 1 uM after 4 hrs by prestoblue cell viability assay; format: functional, cell-based
MCF7 [3] = assay: Potentiation of doxorubicin-mediated cytotoxicity in human MCF7 cells at 1 uM after 4 hrs by prestoblue cell viability assay; format: functional, cell-based
[4] = biological target: Mitogen-activated protein kinase 14 (Homo sapiens, UniProt Q16539); assay: Inhibition of p38alpha MAPK after 40 mins by scintillation counting
Mitogen-activated protein kinase 14, sequence (Q16539 whole entry): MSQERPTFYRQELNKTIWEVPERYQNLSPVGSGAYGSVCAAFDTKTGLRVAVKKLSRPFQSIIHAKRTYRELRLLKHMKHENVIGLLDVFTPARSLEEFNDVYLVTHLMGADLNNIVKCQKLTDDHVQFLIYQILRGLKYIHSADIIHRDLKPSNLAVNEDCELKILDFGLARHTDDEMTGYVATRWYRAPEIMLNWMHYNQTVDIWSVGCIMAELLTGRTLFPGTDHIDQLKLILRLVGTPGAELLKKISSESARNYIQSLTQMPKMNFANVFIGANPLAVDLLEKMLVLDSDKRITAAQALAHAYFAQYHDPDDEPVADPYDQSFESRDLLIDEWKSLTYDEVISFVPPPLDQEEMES

[5] = biological target: ALK tyrosine kinase receptor (Homo sapiens) (UniProt Q9UM73); assay: Inhibition of human ALK assessed as remaining activity at 0.8 uM after 40 mins by scintillation counting
[6] = biological target: 5'-AMP-activated protein kinase catalytic subunit alpha-1 (Homo sapiens) (UniProt Q13131); assay: Inhibition of human AMPKalpha1 assessed as remaining activity at 0.8 uM after 40 mins by scintillation counting
[7] = biological target: Cyclin-dependent kinase 1/cyclin B1 (Homo sapiens) (UniProt P06493+P14635); assay: Inhibition of human CDK1/cyclinB assessed as remaining activity at 0.8 uM after 40 mins by scintillation counting; format: protein-complex assay
Cyclin-dependent kinase 1/cyclin B1 (Homo sapiens), sequence (P06493 whole entry, looked up): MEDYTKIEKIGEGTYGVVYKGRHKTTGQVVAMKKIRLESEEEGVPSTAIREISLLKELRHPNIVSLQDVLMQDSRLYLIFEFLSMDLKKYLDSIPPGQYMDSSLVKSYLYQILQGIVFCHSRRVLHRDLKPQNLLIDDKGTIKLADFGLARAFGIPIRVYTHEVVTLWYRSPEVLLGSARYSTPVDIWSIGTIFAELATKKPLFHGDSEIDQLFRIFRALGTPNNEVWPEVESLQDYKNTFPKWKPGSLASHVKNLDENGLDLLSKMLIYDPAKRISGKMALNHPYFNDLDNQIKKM
Cyclin-dependent kinase 1/cyclin B1 (Homo sapiens), sequence (P14635 whole entry, looked up): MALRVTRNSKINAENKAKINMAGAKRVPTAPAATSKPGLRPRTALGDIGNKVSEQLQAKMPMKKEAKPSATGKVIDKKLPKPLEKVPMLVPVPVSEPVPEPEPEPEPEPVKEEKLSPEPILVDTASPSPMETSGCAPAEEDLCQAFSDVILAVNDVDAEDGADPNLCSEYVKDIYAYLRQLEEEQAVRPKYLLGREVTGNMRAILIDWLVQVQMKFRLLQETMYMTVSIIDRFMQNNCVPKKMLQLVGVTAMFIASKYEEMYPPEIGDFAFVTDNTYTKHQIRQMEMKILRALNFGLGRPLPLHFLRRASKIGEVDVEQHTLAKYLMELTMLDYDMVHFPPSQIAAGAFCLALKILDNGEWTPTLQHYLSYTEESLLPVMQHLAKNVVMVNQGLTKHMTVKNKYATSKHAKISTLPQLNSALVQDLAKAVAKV

[8] = biological target: CDK6/cyclin D3 (Homo sapiens) (UniProt P30281+Q00534); assay: Inhibition of human CDK6/cyclinD3 assessed as remaining activity at 0.8 uM after 40 mins by scintillation counting; format: protein-complex assay
[9] = biological target: Cyclin-dependent kinase 7/ cyclin H (Homo sapiens) (UniProt P51946+P50613); assay: Inhibition of human CDK7/cyclinH/MAT1 assessed as remaining activity at 0.8 uM after 40 mins by scintillation counting; format: protein-complex assay
[10] = biological target: CDK9/cyclin T1 (Homo sapiens) (UniProt O60563+P50750); assay: Inhibition of human CDK9/cyclin T1 assessed as remaining activity at 0.8 uM after 40 mins by scintillation counting; format: protein-complex assay
[11] = biological target: Serine/threonine-protein kinase Chk1 (Homo sapiens) (UniProt O14757); assay: Inhibition of human CHK1 assessed as remaining activity at 0.8 uM after 40 mins by scintillation counting
Serine/threonine-protein kinase Chk1 (Homo sapiens), sequence (O14757 whole entry, canonical isoform): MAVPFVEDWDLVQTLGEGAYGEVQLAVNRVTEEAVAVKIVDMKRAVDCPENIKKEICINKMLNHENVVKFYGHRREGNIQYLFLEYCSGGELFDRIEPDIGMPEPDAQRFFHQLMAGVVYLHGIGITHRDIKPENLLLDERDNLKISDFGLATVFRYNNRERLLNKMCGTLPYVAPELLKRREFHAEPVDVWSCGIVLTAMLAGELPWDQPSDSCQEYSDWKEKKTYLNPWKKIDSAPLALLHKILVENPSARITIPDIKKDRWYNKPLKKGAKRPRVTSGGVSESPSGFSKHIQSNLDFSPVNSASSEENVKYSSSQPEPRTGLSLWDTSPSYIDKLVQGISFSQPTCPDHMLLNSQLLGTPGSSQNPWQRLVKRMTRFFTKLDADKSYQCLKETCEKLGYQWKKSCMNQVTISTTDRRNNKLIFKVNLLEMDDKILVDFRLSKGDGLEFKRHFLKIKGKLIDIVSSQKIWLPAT

[12] = biological target: Casein kinase I isoform gamma-1 (Homo sapiens) (UniProt Q9HCP0); assay: Inhibition of human CK1gamma1 assessed as remaining activity at 0.8 uM after 40 mins by scintillation counting
[13] = biological target: Casein kinase II subunit alpha' (Homo sapiens) (UniProt P19784); assay: Inhibition of human CK2alpha2 assessed as remaining activity at 0.8 uM after 40 mins by scintillation counting
Casein kinase II subunit alpha' (Homo sapiens), sequence (P19784 whole entry, looked up): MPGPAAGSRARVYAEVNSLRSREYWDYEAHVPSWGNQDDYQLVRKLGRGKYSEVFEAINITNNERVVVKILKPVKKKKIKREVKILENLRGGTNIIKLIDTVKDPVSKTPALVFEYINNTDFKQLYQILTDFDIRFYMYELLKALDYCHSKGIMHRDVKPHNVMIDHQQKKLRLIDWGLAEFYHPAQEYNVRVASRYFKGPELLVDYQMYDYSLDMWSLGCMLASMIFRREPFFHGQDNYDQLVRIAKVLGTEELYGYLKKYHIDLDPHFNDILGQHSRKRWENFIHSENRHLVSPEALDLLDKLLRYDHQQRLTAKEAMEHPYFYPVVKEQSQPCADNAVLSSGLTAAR

[14] = biological target: Tyrosine-protein kinase Fyn (Homo sapiens) (UniProt P06241); assay: Inhibition of human Fyn assessed as remaining activity at 0.8 uM after 40 mins by scintillation counting
[15] = biological target: Glycogen synthase kinase-3 beta (Homo sapiens) (UniProt P49841); assay: Inhibition of human GSK3beta assessed as remaining activity at 0.8 uM after 40 mins by scintillation counting
Glycogen synthase kinase-3 beta (Homo sapiens), sequence (P49841 whole entry, looked up): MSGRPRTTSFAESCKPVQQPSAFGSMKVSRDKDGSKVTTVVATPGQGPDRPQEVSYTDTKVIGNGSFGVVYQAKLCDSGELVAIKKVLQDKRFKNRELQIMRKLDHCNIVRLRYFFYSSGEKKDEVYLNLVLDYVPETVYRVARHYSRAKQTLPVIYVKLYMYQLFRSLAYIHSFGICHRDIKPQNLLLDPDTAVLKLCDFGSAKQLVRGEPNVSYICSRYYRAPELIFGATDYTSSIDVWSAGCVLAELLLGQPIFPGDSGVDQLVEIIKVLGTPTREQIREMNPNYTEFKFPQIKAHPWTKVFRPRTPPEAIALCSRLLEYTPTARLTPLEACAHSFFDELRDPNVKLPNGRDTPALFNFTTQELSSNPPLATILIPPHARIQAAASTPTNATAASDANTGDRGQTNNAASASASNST

[16] = biological target: Insulin-like growth factor 1 receptor (Homo sapiens) (UniProt P08069); assay: Inhibition of human IGF-1R assessed as remaining activity at 0.8 uM after 40 mins by scintillation counting
[17] = biological target: Mitogen-activated protein kinase 10 (Homo sapiens) (UniProt P53779); assay: Inhibition of human JNK3 assessed as remaining activity at 0.8 uM after 40 mins by scintillation counting
[18] = biological target: Vascular endothelial growth factor receptor 2 (Homo sapiens) (UniProt P35968); assay: Inhibition of human KDR assessed as remaining activity at 0.8 uM after 40 mins by scintillation counting
Vascular endothelial growth factor receptor 2 (Homo sapiens), sequence (P35968 whole entry): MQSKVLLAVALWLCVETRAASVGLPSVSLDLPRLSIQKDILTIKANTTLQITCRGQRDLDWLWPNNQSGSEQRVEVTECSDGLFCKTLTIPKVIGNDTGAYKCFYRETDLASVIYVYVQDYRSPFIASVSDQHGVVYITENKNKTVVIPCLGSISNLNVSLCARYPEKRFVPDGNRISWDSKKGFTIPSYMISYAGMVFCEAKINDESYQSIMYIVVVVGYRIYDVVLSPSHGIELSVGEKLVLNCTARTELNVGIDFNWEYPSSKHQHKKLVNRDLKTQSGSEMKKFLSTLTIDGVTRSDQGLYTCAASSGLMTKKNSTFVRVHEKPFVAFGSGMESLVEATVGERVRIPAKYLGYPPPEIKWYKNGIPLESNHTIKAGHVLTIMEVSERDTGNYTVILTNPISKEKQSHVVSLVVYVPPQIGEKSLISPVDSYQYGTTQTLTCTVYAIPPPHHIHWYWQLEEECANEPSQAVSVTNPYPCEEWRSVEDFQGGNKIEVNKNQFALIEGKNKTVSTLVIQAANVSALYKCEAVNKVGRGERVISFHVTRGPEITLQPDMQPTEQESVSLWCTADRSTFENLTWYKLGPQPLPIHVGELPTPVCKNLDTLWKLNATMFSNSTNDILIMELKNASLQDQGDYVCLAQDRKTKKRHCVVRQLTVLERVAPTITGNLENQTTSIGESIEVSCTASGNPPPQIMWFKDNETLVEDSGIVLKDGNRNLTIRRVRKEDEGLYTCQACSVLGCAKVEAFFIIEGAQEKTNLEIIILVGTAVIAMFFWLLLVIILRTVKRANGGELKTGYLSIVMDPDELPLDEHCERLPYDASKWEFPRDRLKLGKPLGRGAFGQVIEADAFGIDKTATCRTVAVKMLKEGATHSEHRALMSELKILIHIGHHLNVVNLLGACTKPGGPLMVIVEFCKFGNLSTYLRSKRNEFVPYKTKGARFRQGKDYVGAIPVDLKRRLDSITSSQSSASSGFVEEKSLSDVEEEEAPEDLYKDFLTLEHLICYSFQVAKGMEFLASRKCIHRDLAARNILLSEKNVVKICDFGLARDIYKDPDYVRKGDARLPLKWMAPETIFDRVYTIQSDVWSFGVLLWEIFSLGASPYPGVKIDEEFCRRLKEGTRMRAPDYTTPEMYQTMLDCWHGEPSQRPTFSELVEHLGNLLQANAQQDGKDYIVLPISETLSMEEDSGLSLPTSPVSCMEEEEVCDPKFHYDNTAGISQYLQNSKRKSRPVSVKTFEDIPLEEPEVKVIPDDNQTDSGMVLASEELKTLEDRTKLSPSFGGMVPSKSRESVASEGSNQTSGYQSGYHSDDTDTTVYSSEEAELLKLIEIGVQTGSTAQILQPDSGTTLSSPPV

[19] = biological target: Serine/threonine-protein kinase 10 (Homo sapiens) (UniProt O94804); assay: Inhibition of human LOK assessed as remaining activity at 0.8 uM after 40 mins by scintillation counting
[20] = biological target: Tyrosine-protein kinase Lyn (Homo sapiens) (UniProt P07948); assay: Inhibition of human Lyn assessed as remaining activity at 0.8 uM after 40 mins by scintillation counting
[21] = biological target: MAP kinase-activated protein kinase 2 (Homo sapiens) (UniProt P49137); assay: Inhibition of human MAPKAP-K2 assessed as remaining activity at 0.8 uM after 40 mins by scintillation counting
MAP kinase-activated protein kinase 2 (Homo sapiens), sequence (P49137 whole entry, looked up): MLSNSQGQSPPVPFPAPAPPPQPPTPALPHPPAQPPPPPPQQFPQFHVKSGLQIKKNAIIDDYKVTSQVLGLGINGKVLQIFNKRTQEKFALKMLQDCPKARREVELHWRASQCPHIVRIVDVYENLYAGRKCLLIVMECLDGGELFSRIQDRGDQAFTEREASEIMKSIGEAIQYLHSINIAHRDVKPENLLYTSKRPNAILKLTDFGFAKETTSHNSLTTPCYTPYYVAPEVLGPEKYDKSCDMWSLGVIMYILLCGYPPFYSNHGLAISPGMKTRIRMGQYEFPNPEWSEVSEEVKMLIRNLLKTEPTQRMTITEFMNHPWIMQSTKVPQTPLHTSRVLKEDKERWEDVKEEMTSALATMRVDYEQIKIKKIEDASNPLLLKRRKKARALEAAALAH

[22] = biological target: Dual specificity mitogen-activated protein kinase kinase 7 (Homo sapiens) (UniProt O14733); assay: Inhibition of human MKK7beta assessed as remaining activity at 0.8 uM after 40 mins by scintillation counting
[23] = biological target: MAP kinase-interacting serine/threonine-protein kinase 2 (Homo sapiens) (UniProt Q9HBH9); assay: Inhibition of human Mnk2 assessed as remaining activity at 0.8 uM after 40 mins by scintillation counting
[24] = biological target: Ribosomal protein S6 kinase beta-1 (Homo sapiens) (UniProt P23443); assay: Inhibition of human p70S6K assessed as remaining activity at 0.8 uM after 40 mins by scintillation counting
[25] = biological target: Serine/threonine-protein kinase PAK 2 (Homo sapiens) (UniProt Q13177); assay: Inhibition of human PAK2 assessed as remaining activity at 0.8 uM after 40 mins by scintillation counting
[26] = biological target: Platelet-derived growth factor receptor beta (Homo sapiens) (UniProt P09619); assay: Inhibition of human PDGFRbeta assessed as remaining activity at 0.8 uM after 40 mins by scintillation counting
Homo sapiens [27] = organism: Homo sapiens; assay: Inhibition of human PKA assessed as remaining activity at 0.8 uM after 40 mins by scintillation counting
[28] = biological target: RAC-alpha serine/threonine-protein kinase (Homo sapiens) (UniProt P31749); assay: Inhibition of human PKBalpha assessed as remaining activity at 0.8 uM after 40 mins by scintillation counting
[29] = biological target: Protein kinase C alpha type (Homo sapiens) (UniProt P17252); assay: Inhibition of human PKCalpha assessed as remaining activity at 0.8 uM after 40 mins by scintillation counting
[30] = biological target: Protein kinase C theta type (Homo sapiens) (UniProt Q04759); assay: Inhibition of human PKCtheta assessed as remaining activity at 0.8 uM after 40 mins by scintillation counting
Homo sapiens [31] = organism: Homo sapiens; assay: Inhibition of human PI3K assessed as remaining activity at 0.8 uM after 40 mins by scintillation counting
[32] = biological target: MAP kinase-activated protein kinase 5 (Homo sapiens) (UniProt Q8IW41); assay: Inhibition of human PRAK assessed as remaining activity at 0.8 uM after 40 mins by scintillation counting
[33] = biological target: Rho-associated protein kinase 1 (Homo sapiens) (UniProt Q13464); assay: Inhibition of human ROCK-I assessed as remaining activity at 0.8 uM after 40 mins by scintillation counting
[34] = biological target: Tyrosine-protein kinase receptor TYRO3 (Homo sapiens) (UniProt Q06418); assay: Inhibition of human Rse assessed as remaining activity at 0.8 uM after 40 mins by scintillation counting
[35] = biological target: Ribosomal protein S6 kinase alpha-1 (Homo sapiens) (UniProt Q15418); assay: Inhibition of human Rsk1 assessed as remaining activity at 0.8 uM after 40 mins by scintillation counting

SRSF protein kinase 1 (Homo sapiens), sequence (Q96SB4 whole entry): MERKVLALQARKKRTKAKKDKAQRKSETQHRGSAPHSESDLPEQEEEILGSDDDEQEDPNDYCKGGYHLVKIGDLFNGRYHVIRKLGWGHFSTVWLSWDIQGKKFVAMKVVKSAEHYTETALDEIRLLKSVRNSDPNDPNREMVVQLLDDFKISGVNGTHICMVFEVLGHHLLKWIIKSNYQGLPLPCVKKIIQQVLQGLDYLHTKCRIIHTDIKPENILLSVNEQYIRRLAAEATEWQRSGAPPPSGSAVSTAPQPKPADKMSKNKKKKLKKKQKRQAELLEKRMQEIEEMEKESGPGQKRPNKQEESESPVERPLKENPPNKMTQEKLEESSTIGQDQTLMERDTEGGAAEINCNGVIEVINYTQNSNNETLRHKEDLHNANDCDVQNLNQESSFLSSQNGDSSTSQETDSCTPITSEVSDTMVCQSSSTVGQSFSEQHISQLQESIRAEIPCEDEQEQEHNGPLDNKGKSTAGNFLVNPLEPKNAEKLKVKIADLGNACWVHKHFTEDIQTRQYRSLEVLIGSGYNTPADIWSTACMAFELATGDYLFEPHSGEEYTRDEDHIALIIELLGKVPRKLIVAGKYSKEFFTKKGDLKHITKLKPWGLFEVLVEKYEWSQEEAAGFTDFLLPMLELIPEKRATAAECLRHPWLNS

In the case of `CC(C)Nc1cc(-c2oc3ccccc3c(=O)c2-c2ccc(F)cc2)ccn1`, the Activity [1] is reported as 109%, the Activity (MDA-MB-436) is reported as “inactive” and the Activity (MCF7 [2]) is reported as “inactive”. The Activity (MCF7 [3]) was “inactive”, the IC50 [4] was 17 nM and the Activity [5] was 88%. The Activity [6] was 97%, the Activity [7] was 95% and the Activity [8] was 100%. It also gave an Activity [9] of 100%, an Activity [10] of 96% and an Activity [11] of 98%. The Activity [12] was 94%, the Activity [13] was 105% and the Activity [14] was 100%. It also gave an Activity [15] of 132%, an Activity [16] of 94% and an Activity [17] of 21%. It also gave an Activity [18] of 98%, an Activity [19] of 102% and an Activity [20] of 101%. The Activity [21] was 104%, the Activity [22] was 120% and the Activity [23] was 96%. For the same molecule, the Activity [24] was 102%, the Activity [25] was 106% and the Activity [26] was 107%. The Activity (Homo sapiens [27]) was 114%, the Activity [28] was 100% and the Activity [29] was 96%. The Activity [30] was 95%, the Activity (Homo sapiens [31]) was 100% and the Activity [32] was 72%. The Activity [33] was 94%, the Activity [34] was 98% and the Activity [35] was 104%.
In the case of `O=c1c(-c2ccc(F)cc2)c(-c2ccnc(NC3CCCCC3)c2)oc2ccccc12`, the Activity [1] is reported as 116%, the Activity (MDA-MB-436) is reported as “inactive” and the Activity (MCF7 [2]) is reported as “inactive”. The Activity (MCF7 [3]) was “inactive”, the IC50 [4] was 34 nM and the Activity [5] was 91%. The Activity [6] was 102%, the Activity [7] was 93% and the Activity [8] was 99%. For the same molecule, the Activity [9] was 101%, the Activity [10] was 93% and the Activity [11] was 104%. It also gave an Activity [12] of 97%, an Activity [13] of 104% and an Activity [14] of 103%. For the same molecule, the Activity [15] was 124%, the Activity [16] was 100% and the Activity [17] was 24%. It also gave an Activity [18] of 101%, an Activity [19] of 94% and an Activity [20] of 98%. It also gave an Activity [21] of 99%, an Activity [22] of 99% and an Activity [23] of 103%. It also gave an Activity [24] of 102%, an Activity [25] of 104% and an Activity [26] of 105%. For the same molecule, the Activity (Homo sapiens [27]) was 118%, the Activity [28] was 107% and the Activity [29] was 102%. It also gave an Activity [30] of 102%, an Activity (Homo sapiens [31]) of 100% and an Activity [32] of 66%. For the same molecule, the Activity [33] was 106%, the Activity [34] was 91% and the Activity [35] was 104%.
